According to paper PMC11996864, “A small-molecule inhibitor of BCL10-MALT1 interaction abrogates progression of diffuse large B cell lymphoma” (The Journal of Clinical Investigation, 2025):
Where “and” joins values, the source holds several entries; their conditions need not be identical. Equal values may be shown once.

Columns and labels:
[1] = biological target: T1, binding of Id1 to immobilized MyoD (Homo sapiens, UniProt P41134); assay: MyoD1/ID1 ELISA (specificity control); conditions: for inhibition of binding of Id1 to immobilized MyoD: result in words
T1 construct: purchased Proteintech Ag13359 (GST-ID1); Ag13186 (His-MyoD1)
T1 sequence (P41134 1-155): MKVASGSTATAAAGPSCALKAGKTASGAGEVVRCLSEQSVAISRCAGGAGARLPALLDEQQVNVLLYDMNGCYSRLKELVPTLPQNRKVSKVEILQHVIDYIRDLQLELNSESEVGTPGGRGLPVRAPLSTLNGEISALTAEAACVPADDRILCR
Description: ELISA-based protein-protein interaction assay. On a high-binding 96-well ELISA microplate (Greiner Cat# 655061), 100 ng of His-tagged recombinant human full-length BCL10 protein (Novus Cat# NBP1-99064) or in 100 µl PBS was allowed to adhere overnight at 4°C. The plate was blocked with 5% BSA in PBS for 1 hour at room temperature. After washing twice with PBS-T, a mixture of 100 ng of GST-tagged recombinant human full-length MALT1 protein (Novus Biologicals Cat# H00010892-P01) and compound that was preincubated for 1 hour in 100 μl PBS was added to the plate for 1 hour at room temperature. After washing three times with PBS-T, anti-MALT1 antibody (Cell Signaling Technology, Cat# 2494) in 5% BSA in PBS was added at 1:1000 dilution for 1 hour at room temperature. After washing three times with PBS-T, HRP-conjugated secondary antibody in 5% BSA in PBS was added at 1:5000 dilution for 1 hour at room temperature. After washing three times with PBS-T, 100 µl of 3,3’,5,5’-tetramethylbenzidine (TMB) substrate solution (Thermo Scientific, Cat# 34028) was added for up to 15 minutes, and 100 µl of 2 M sulfuric acid was added to stop the reaction. The plate was read at 450 nm using a spectrophotometer (Molecular Devices SpectraMax i3). The MyoD1/ID ELISA was performed as above except that 100 ng of recombinant human His-tagged MyoD1 (Proteintech, Cat# Ag13186) was plated overnight at 4°C prior to the addition of 100 ng of recombinant human GST-ID1 (Proteintech, Cat# Ag13359) preincubated to with compounds. The anti-GST antibody (clone 26H1, Cell signaling Technology, Cat #2624) was used to detect bound ID1. […]

[2] = tested on: IKKα/β phosphorylation in Jurkat T cells; assay: IKKα/β phosphorylation after CD3/CD28 stimulation (MALT1 scaffolding activity); assay type: cell-based, human; conditions: for pIKK (normalized): Jurkat, 1 μM; for IKK phosphorylation: result in words
Description: (§1) Western blot analysis of RelB and N4BP1 cleavage was used to test the effect of small molecules on MALT1 protease activity. To this end, 3 million Jurkat T cells were pretreated with compounds for 24 hours in serum-free media, and then 5 μM MG-132 was added for 1 hour before stimulation with CD3/CD28 (Stemcell Technologies, catalog 10971), and lysed in RIPA buffer (Millipore, catalog 20-188) with protease and phosphatase inhibitor cocktail (Pierce, catalog 78446). IKKα/β phosphorylation and IκBα phosphorylation were used as measures of MALT1 scaffolding activity, while ERK1/2 phosphorylation was used as a control. Two million Jurkat T cells were treated with 1 μM M1i-124, 1 μM M1i-124d1, or DMSO in serum-free media for 16 hours, stimulated with CD3/CD28 for 0, 5, 10, or 20 minutes, and then immediately lysed in RIPA buffer with protease and phosphatase inhibitors. For experiments evaluating RelB cleavage and phosphorylation of IκBα in TMD8 cells, cells were treated with compounds for 24 hours in media containing 5% FBS. For RelB Western blot analysis, 5 μM MG-132 (Cell Signaling Technology, catalog 2194s) was added 4 hours before lysis in RIPA lysis buffer with protease/phosphatase inhibitors.

[3] = tested on: RelB cleavage in TMD8 cells; assay: Constitutive RelB cleavage, Western blot; assay type: cell-based, human; conditions: result in words
Description: as §1

[4] = tested on: OCI-Ly3 cells; assay: cells; parameters: species or system TMD8 or OCI-Ly3; Inhibition of spontaneous IL-10 secretion from ABC-DLBCL cells, human IL-10 ELISA of supernatants; conditions: Homo sapiens, OCI-Ly3, 20 h; IL-10 secretion; read-out: IC50 (µM) IL-10 inhibition
Description: Cytokine ELISAs. Cytokines in cell culture supernatants were measured 20-24h after treatment with 0, 0.01, 0.03, 0.1, 0.3, 1, or 3 µM of compounds using the following ELISA kits according to the manufacturer’s instructions: Human IL-2 ELISA (BioLegend Cat# 431804), Human IL-6 ELISA (BioLegend Cat# 430504), and Human IL-10 ELISA (BioLegend Cat# 430604). TMD8 and OCI-Ly3 cells were treated with specific doses of compounds in serum-free media for 20 hours. Jurkat T cells were pretreated with specific doses of compounds for 8 hours in serum-free media, then stimulated with PMA/ionomycin for 16 hours prior to the collection of supernatants. Mouse splenocytes were isolated from spleens of C57/BL6 mice by passing spleens through a 70 micron filter followed by red blood cell lysis using ACK lysing buffer (Quality Biologics, Cat# 118-156-101). […] Supernatant was collected at 24 hours and mouse IL-2 levels were analyzed via ELISA (R&D Systems, Cat# DY402-05). IL-6 and IL-10 are NF-κB–induced cytokines that promote the proliferation and survival of malignant B cells through both autocrine and paracrine mechanisms ([44]), and are negative prognostic factors in ABC-DLBCL ([45], [46]). ABC-DLBCL cell lines spontaneously secrete substantial levels of IL-6 and IL-10, whereas GCB-DLBCL cell lines express only a negligible amount of these cytokines ([24]). […] The IC50 for inhibition of cytokine secretion by each compound in each cell line is reported in Supplemental Table 1.  Figure 4 M1i-124 and M1i-124d1 inhibit MALT1 protease and scaffolding functions, and MALT1-dependent cytokine secretion, in ABC-DLBCL cells. (A and B) Effect of 1 μM compound pretreatment on constitutive RelB cleavage (A) and IκB phosphorylation (B) within TMD8 cells. Representative Western blots are shown along with quantification (mean ± SEM; n = 2). (C) IL6 and IL10 mRNA levels in TMD8 cells treated with 1 μM M1i-124 or M1i-124d1 (mean ± SEM; n = 6). […] Statistical analyses were performed using 1-way ANOVA and Dunnett’s multiple-comparison test. **P < 0.01, ***P < 0.001, ****P < 0.0001.

Row | remaining activity at 0.39 µM ([1]; 0.39 µM, read-out: MyoD-Id Interaction (% of control)) [%] | remaining activity at 6.25 µM ([1]; 6.25 µM, read-out: MyoD-Id Interaction (% of control)) [%] | Compound | MyoD-Id Interaction (% of control) ([1]; 0.0975 µM) | MyoD-Id Interaction (% of control) ([1]; 0.39 µM) | MyoD-Id Interaction (% of control) ([1]; 1.56 µM) | MyoD-Id Interaction (% of control) ([1]; 6.25 µM) | MyoD-Id Interaction (% of control) ([1]; 12.5 µM) | remaining activity at 12.5 µM ([1]; 12.5 µM, read-out: MyoD-Id Interaction (% of control)) [%] | MyoD-Id Interaction (% of control) ([1]; 25 µM) | MyoD-Id Interaction (% of control) ([1]; 50 µM) | remaining activity at 50 µM ([1]; 50 µM, read-out: MyoD-Id Interaction (% of control)) [%] | MyoD-Id Interaction (% of control) ([1]; 100 µM) | inhibition of binding of Id1 to immobilized MyoD [1] | pIKK (normalized) ([2]; CD3/CD28 0 min) | IKK phosphorylation [2] | RelB cleavage in TMD8 cells [3] | IC50 [4] [µM] | pIKK (normalized) ([2]; CD3/CD28 10 min)
1 | – | – | O=S(=O)(NCc1ccc2c(c1)OCO2)c1ccc(Cc2ccc(S(=O)(=O)NCc3ccc4c(c3)OCO4)cc2)cc1 [M1i-124] | 75 % of control and 118.107 % of control and 86.1723 % of control | 70.9459 % of control and 110.989 % of control and 93.988 % of control | 102.244 % of control and 139.153 % of control and 113.828 % of control | 126.689 % of control and 146.808 % of control and 132.264 % of control | 149.548 % of control and 131.062 % of control | 145 | 150.772 % of control and 122.599 % of control and 116.032 % of control | 152.034 % of control and 140.013 % of control | 158 | 153.861 % of control and 138.475 % of control and 133.2 % of control | neither M1i-124 nor M1i-124d1 could inhibit | 0.4315 and 0.5112 and 0.3213 and 0.2741 and 0.4341 | reduced IKK phosphorylation | markedly reduced cleavage of RelB | 0.7 | –
2 | 80.9 | 97.9 | COc1ccc(CNS(=O)(=O)c2ccc(Cc3ccc(S(=O)(=O)NCc4ccc(OC)cc4)cc3)cc2)cc1 [M1i-124d1] | 78.8369 % of control and 104.379 % of control and 92.0174 % of control | 96.3277 % of control and 95.1904 % of control | 85.8349 % of control and 109.633 % of control and 85.4375 % of control | 108.475 % of control and 92.4516 % of control | 119.401 % of control and 82.5424 % of control and 93.487 % of control | – | 109.677 % of control and 97.6271 % of control and 64.0281 % of control | 120.512 % of control and 93.4463 % of control and 89.2118 % of control | – | 139.841 % of control and 108.927 % of control and 105.812 % of control | neither M1i-124 nor M1i-124d1 could inhibit | – | reduced IKK phosphorylation | markedly reduced cleavage of RelB | 2.2 | 0.3485 and 0.3518 and 0.2777 and 0.3582 and 0.2291
